In patent EP0291696A2, “Process of multiplication of epithelial cells” (Battelle-Institut e.V., priority 1987, dated 1988):

What was measured:
Keratinozyten [1] = assay: Keratinocyte culture with FCS or Nu-Serum: cell count after 12 days and days to confluence (Beispiel 3); type: cell-based, human
Text: Kerationozyten wurden durch Trypsinierung von Haut nach der Methode von M. Green (Green, M. et al, PNAS 76 (1979) 5665) gewonnen und in einer Zelldichte von 2,5 x 10 ⁴ Zellen/cm² ausgesät. Die Hautproben in den Beispielen 1, 2 und 3 stammten von Patienten die zwischen 30 und 40 Jahre alt waren. Zusätzlich wurden die Kulturen mit 2 x 10 ⁴ Zellen/cm² letal bestrahlter 3T3-Fibroblasten inokuliert, beschrieben im US-Patent 4,016,036.
Als Medium diente eine Mischung aus DMEM und HAM's F 12 (3:1) mit folgenden Zusätzen: Hydrocortison 0,4 ug/ml Insulin 5 ug/ml Triiodo-Thyronin 2x10⁻⁹M Transferrin 5 ug/ml Adenin 8 x 10⁻⁴ M Gentamycin, Penicillin, Streptomycin je 50 ug/ml Fötales Kälberserum 10 % EGF (nach 2 Tagen) 10 ng/ml
In diesem Experiment, das wie unter Beispiel 1 beschrieben durchgeführt wurde, wurden verschiedene Forskolinkonzentrationen unter Verwendung bzw. in Vergleich von 10 % fötalem Kälberserum (FCS) und einem synthetischen Serum der Firma Biomedica Wien (Nu-Serum Nr. 1) untersucht.

Keratinozyten [2] = assay: Keratinocyte culture: cell count after 12 days and days to confluence (Beispiel 2); type: cell-based, human

SMILES: C=C[C@@]1(C)CC(=O)[C@]2(O)[C@@]3(C)[C@@H](O)CCC(C)(C)[C@@H]3[C@H](O)[C@H](OC(C)=O)[C@@]2(C)O1 [Forskolin]
- Anzahl der Tage bis zur Konfluenz (Keratinozyten [1]; FCS, 5x10^-5M): 18 Tage
- Zellzahl nach 12 Tagen in einer 25cm^2 Kultur-schale (Keratinozyten [1]; FCS, 5x10^-5M): 16 x 10^5
- Anzahl der Tage bis zur Konfluenz (Keratinozyten [1]; FCS, 5x10^-6M): 15 Tage
- Zellzahl nach 12 Tagen in einer 25cm^2 Kultur-schale (Keratinozyten [1]; FCS, 5x10^-6M): 24 x 10^5
- Anzahl der Tage bis zur Konfluenz (Keratinozyten [1]; FCS, 10^-5M): 14 Tage
- Zellzahl nach 12 Tagen in einer 25cm^2 Kultur-schale (Keratinozyten [1]; FCS, 10^-5M): 32 x 10^5
- Anzahl der Tage bis zur Konfluenz (Keratinozyten [1]; FCS, 10^-6M): 20 Tage
- Zellzahl nach 12 Tagen in einer 25cm^2 Kultur-schale (Keratinozyten [1]; FCS, 10^-6M): 14 x 10^5
- Anzahl der Tage bis zur Konfluenz (Keratinozyten [1]; Nu-Serum, 5x10^-5M): 18 Tage
- Zellzahl nach 12 Tagen in einer 25cm^2 Kultur-schale (Keratinozyten [1]; Nu-Serum, 5x10^-5M): 13 x 10^5
- Anzahl der Tage bis zur Konfluenz (Keratinozyten [1]; Nu-Serum, 5x10^-6M): 16 Tage
- Zellzahl nach 12 Tagen in einer 25cm^2 Kultur-schale (Keratinozyten [1]; Nu-Serum, 5x10^-6M): 25 x 10^5
- Anzahl der Tage bis zur Konfluenz (Keratinozyten [1]; Nu-Serum, 10^-5M): 15 Tage
- Zellzahl nach 12 Tagen in einer 25cm^2 Kultur-schale (Keratinozyten [1]; Nu-Serum, 10^-5M): 27 x 10^5
- Anzahl der Tage bis zur Konfluenz (Keratinozyten [1]; Nu-Serum, 10^-6M): 20 Tage
- Zellzahl nach 12 Tagen in einer 25cm^2 Kultur-schale (Keratinozyten [1]; Nu-Serum, 10^-6M): 14 x 10^5
- Anzahl der Tage bis zur Konfluenz (Keratinozyten [2]; 5x10^-5M): 18 Tage
- Zellzahl nach 12 Tagen in einer 25cm^2 Kultur-schale (Keratinozyten [2]; 5x10^-5M): 13 x 10^5
- Anzahl der Tage bis zur Konfluenz (Keratinozyten [2]; 5x10^-6M): 14 Tage
- Zellzahl nach 12 Tagen in einer 25cm^2 Kultur-schale (Keratinozyten [2]; 5x10^-6M): 23 x 10^5
- Anzahl der Tage bis zur Konfluenz (Keratinozyten [2]; 10^-5M): 14 Tage
- Zellzahl nach 12 Tagen in einer 25cm^2 Kultur-schale (Keratinozyten [2]; 10^-5M): 25 x 10^5
- Anzahl der Tage bis zur Konfluenz (Keratinozyten [2]; 10^-6M): 18 Tage
- Zellzahl nach 12 Tagen in einer 25cm^2 Kultur-schale (Keratinozyten [2]; 10^-6M): 12 x 10^5
- Anzahl der Tage bis zur Konfluenz (Keratinozyten [2]; 10^-7M): 24 Tage
- Zellzahl nach 12 Tagen in einer 25cm^2 Kultur-schale (Keratinozyten [2]; 10^-7M): 8 x 10^5
- Zellzahl nach 12 Tagen in einer 25cm^2 Kultur-schale (Keratinozyten [2]; 10^-8M): 2,5 x 10^5
- Reduction of the Zeit bis zum Erreichen einer konfluenten Keratinozytenkultur im Vergleich zu Cholera Toxin (Keratinozyten [2]; Forskolin 5 x 10⁻⁶ bzw. 10⁻⁵ in the medium): ≤ 40%
